This is an account of results in patent publication US20260083865A1, “PROSTATE SPECIFIC MEMBRANE ANTIGEN (PSMA) LIGANDS AND USE THEREOF” (priority 2022, published 2026).

Assay [1] concerns the target T1, PSMA-expressing C4-2 cells (Homo sapiens, UniProt Q04609).
T1 construct: PSMA-expressing C4-2 cells (ATCC, Cat. No. CRL-3314) were cultured in RPMI-1640; host or cells: C4-2 cells
Briefly: FACS binding assay (competition with 50 nM PSM-0183). To be noted: pIC50 category of FACS binding, C4-2 cells; read-out: pIC50 [C4-2] CAT (converted). An outline of the steps:
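Competition format: fluorescent tracer PSM-0183 (50 nM) displaced from PSMA on C4-2 cells by a test compound titration over 1 h at 4 °C. Bound tracer was quantified as flow-cytometric AF488 median fluorescence after washing. Four-parameter logistic fits of MFI data gave IC50 and pIC50.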

The target of assay [2] is T2, Fc-fusion protein of human PSMA (hPSMA-Fc) (Homo sapiens, UniProt Q04609).
T2 construct: purchased Acro Biosystems PSA-H5264
T2 sequence (Q04609 44-750 limits assumed): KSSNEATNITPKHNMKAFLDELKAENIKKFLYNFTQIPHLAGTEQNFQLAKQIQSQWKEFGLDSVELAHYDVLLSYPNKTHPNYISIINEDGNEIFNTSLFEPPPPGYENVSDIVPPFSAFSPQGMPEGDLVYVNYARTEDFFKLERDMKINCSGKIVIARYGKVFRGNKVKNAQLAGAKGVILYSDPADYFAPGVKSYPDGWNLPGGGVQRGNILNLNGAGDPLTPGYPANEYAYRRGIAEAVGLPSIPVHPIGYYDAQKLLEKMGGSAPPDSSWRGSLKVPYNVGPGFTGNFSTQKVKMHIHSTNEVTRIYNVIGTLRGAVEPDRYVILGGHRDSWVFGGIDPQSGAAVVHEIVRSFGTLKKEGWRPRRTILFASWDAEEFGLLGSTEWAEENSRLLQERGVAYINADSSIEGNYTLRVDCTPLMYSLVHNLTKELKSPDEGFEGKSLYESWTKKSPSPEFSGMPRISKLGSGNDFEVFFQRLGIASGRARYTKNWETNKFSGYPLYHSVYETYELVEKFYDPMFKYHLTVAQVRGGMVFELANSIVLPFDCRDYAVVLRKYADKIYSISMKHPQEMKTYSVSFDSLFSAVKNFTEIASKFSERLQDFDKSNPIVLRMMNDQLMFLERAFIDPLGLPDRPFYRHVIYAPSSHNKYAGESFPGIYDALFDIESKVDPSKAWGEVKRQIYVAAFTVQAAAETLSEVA
Briefly: Surface plasmon resonance assay (Biacore T200, single cycle kinetic). To be noted: pKD category for PSMA SPR activity assay, hPSMA-Fc, 25° C.; read-out: pKD CAT (converted). The format is binding. The procedure, abridged:
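KD, expressed as pKD, came from 1:1 Langmuir fits of reference- and buffer-blank-subtracted SPR data. The runs were single-cycle kinetics at 25° C in HBST/0.1% DMSO over human PSMA-Fc, captured to ~1000 RU on a peptide-coated CM5 surface and regenerated with 10 mM glycine pH 1.5.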
For orientation: SPR reads the build-up and loss of mass on a sensor chip optically.

SMILES strings stand for the structures. Numbered stars: 1 amine (or outer) side, 2 acyl side, 3 side chain; on linkers, the order of the positions; unused ones are H or OH. Bridge positions count the residues as written; N and C are the ends. Square brackets hold non-standard residues; d marks the D form. Peptide text beside a SMILES is read from it. * marks the point of attachment. DOTA = O=C(O)CN1CCN(CC(=O)O)CCN(CC(=O)*)CCN(CC(=O)O)CC1; Phe(3-CN) = N#Cc1cccc(C[C@H](N)C(=O)O)c1; Phe(4-Cl) = N[C@@H](Cc1ccc(Cl)cc1)C(=O)O; Arg(Me) = CNC(=N)NCCC[C@H](N)C(=O)O; Isobutyryl(2-OH) = CC(C)(O)C(=O)*; NMeT = CN[C@H](C(=O)O)[C@@H](C)O; 4Pal = N[C@@H](Cc1ccncc1)C(=O)O; X1 = O=C(CC1CCN([*:1])CC1)[*:2]; Lys(Me) = CNCCCC[C@H](N)C(=O)O; Tle = CC(C)(C)[C@H](N)C(=O)O; 4Amb = NCc1ccc(C(=O)O)cc1; Nle = CCCC[C@H](N)C(=O)O; NHCH2CH2NHMe = CNCCN*; Aib = CC(C)(N)C(=O)O

T1 sequence (Q04609 whole entry): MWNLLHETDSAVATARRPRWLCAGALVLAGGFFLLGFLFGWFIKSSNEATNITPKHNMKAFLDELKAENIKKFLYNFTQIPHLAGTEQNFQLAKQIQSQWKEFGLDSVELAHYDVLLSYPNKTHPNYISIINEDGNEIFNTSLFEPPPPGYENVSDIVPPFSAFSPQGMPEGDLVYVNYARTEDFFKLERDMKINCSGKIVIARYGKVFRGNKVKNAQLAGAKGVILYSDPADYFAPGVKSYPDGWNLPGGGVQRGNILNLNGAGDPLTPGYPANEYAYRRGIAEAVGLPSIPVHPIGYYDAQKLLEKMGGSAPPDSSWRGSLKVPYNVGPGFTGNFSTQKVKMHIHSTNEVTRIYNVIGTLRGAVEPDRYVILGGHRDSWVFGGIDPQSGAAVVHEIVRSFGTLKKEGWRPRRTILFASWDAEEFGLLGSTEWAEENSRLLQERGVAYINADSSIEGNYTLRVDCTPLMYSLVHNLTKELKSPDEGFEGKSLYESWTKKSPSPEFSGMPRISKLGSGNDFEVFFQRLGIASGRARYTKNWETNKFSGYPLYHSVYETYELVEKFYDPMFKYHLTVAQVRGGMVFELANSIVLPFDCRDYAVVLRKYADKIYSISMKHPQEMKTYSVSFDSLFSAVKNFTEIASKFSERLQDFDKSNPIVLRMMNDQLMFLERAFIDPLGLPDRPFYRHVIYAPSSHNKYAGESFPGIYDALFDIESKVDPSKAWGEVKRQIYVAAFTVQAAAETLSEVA

`C[C@@H](O)[C@H](NC(=O)[C@@H](NC(=O)[C@@H]1CSSC[C@H](NC(=O)[C@H](Cc2ccncc2)NC(=O)C(C)(C)NC(=O)[C@@H](NC(=O)CC2CCN(C(=O)CN3CCN(CC(=O)O)CCN(CC(=O)O)CCN(CC(=O)O)CC3)CC2)[C@@H](C)O)C(=O)N[C@@H](CCCCN)C(=O)N[C@@H](CCCNC(=N)N)C(=O)NC(C)(C)C(=O)N[C@@H](CC(N)=O)C(=O)N1)C(C)(C)C)C(N)=O` [PSM-0454, DOTA-Cmp-Thr-Aib-Ppa-[Cys-Lys-Cit-Aib-Asn-Cys]-Tle-Thr-NH2] ({DOTA}-[X1]T[Aib][4Pal]CKR[Aib]NC[Tle]T-NH2; disulfide 5-10): the IC50 in assay [1] is 1260 to 3160 nM. Further, the Kd in assay [2] was 126 to 501 nM.

`C[C@H](NC(=O)[C@H]([C@@H](C)O)N(C)C(=O)CC1CCN(C(=O)CN2CCN(CC(=O)O)CCN(CC(=O)O)CCN(CC(=O)O)CC2)CC1)C(=O)N[C@@H](Cc1ccc(Cl)cc1)C(=O)N[C@H]1CSSC[C@@H](C(=O)N[C@H](C(=O)N[C@H](C(N)=O)[C@@H](C)O)C(C)(C)C)NC(=O)[C@H](CC(N)=O)NC(=O)C(C)(C)NC(=O)[C@H](CCCNC(=N)N)NC(=O)[C@H](CCCCN)NC1=O` [PSM-0455, DOTA-Cmp-Nmt-Ala-Pcf-[Cys-Lys-Arg-Aib-Asn-Cys]-Tle-Thr-NH2] ({DOTA}-[X1][NMeT]A[Phe(4-Cl)]CKR[Aib]NC[Tle]T-NH2; disulfide 5-10): the IC50 in assay [1] was 200 to 1260 nM. Moreover, in assay [2], the Kd is 126 to 501 nM.

In the case of `CNCCNC(=O)[C@@H](NC(=O)[C@@H]1CSSC[C@H](NC(=O)[C@H](Cc2ccc(Cl)cc2)NC(=O)C(C)(C)NC(=O)[C@@H](NC(=O)CC2CCN(C(=O)CN3CCN(CC(=O)O)CCN(CC(=O)O)CCN(CC(=O)O)CC3)CC2)[C@@H](C)O)C(=O)N[C@@H](CCCCN)C(=O)N[C@@H](CCCNC(=N)N)C(=O)NC(C)(C)C(=O)N[C@@H](CC(N)=O)C(=O)N1)C(C)(C)C` [PSM-0456, DOTA-Cmp-Thr-Aib-Pcf-[Cys-Lys-Arg-Aib-Asn-Cys]-Tle-en(Me)] ({DOTA}-[X1]T[Aib][Phe(4-Cl)]CKR[Aib]NC[Tle]-NHCH2CH2NHMe; disulfide 5-10), the IC50 in assay [1] was less than 200 nM. In addition, the Kd in assay [2] is 12.6 to 126 nM.

As for `CC(C)(NC(=O)c1ccc(CNC(=O)CN2CCN(CC(=O)O)CCN(CC(=O)O)CCN(CC(=O)O)CC2)cc1)C(=O)N[C@@H](Cc1ccccc1)C(=O)N[C@H]1CSSC[C@@H](C(=O)N[C@H](C(N)=O)C(C)(C)C)NC(=O)[C@H](CC(N)=O)NC(=O)C(C)(C)NC(=O)[C@H](CCCNC(=N)N)NC(=O)[C@H](CCCCN)NC1=O` [PSM-0458, DOTA-Pamb-Aib-Phe-[Cys-Lys-Arg-Aib-Asn-Cys]-Tle-NH2] ({DOTA-4Amb}-[Aib]FCKR[Aib]NC[Tle]-NH2; disulfide 3-8), the IC50 in assay [1] is less than 200 nM. In addition, the Kd in assay [2] was 12.6 to 126 nM.

For `CNCCCC[C@@H]1NC(=O)[C@@H](NC(=O)[C@H](Cc2cccc(C#N)c2)NC(=O)C(C)(C)NC(=O)[C@@H](NC(=O)CC2CCN(C(=O)CN3CCN(CC(=O)O)CCN(CC(=O)O)CCN(CC(=O)O)CC3)CC2)[C@@H](C)O)CSSC[C@@H](C(=O)N[C@H](C(N)=O)C(C)(C)C)NC(=O)[C@H](CC(N)=O)NC(=O)C(C)(C)NC(=O)[C@H](CCCNC(=N)NC)NC1=O` [PSM-0459, DOTA-Cmp-Thr-Aib-Mnf-[Cys-Lys(Me)-Arg(Me)-Aib-Asn-Cys]-Tle-NH2] ({DOTA}-[X1]T[Aib][Phe(3-CN)]C[Lys(Me)][Arg(Me)][Aib]NC[Tle]-NH2; disulfide 5-10), in assay [1], the IC50 was 200 to 1260 nM. The Kd in assay [2] is 12.6 to 126 nM.

For the compound `CCCC[C@H](NC(=O)[C@@H]1CSSC[C@H](NC(=O)[C@H](Cc2ccccc2)NC(=O)[C@H](C)NC(=O)[C@@H](NC(C)=O)[C@@H](C)O)C(=O)N[C@@H](CCCCN)C(=O)N[C@@H](CCCNC(=N)N)C(=O)N2CCC[C@H]2C(=O)N[C@@H](CC(N)=O)C(=O)N1)C(=O)N[C@H](C(=O)N[C@@H](CC(=O)O)C(N)=O)[C@@H](C)O` [PSM-0460, Ac-Thr-Ala-Phe-[Cys-Lys-Arg-Pro-Asn-Cys]-Nle-Thr-Asp-NH2] (Ac-TAFCKRPNC[Nle]TD-NH2; disulfide 4-9), the IC50 in assay [1] was less than 200 nM. Moreover, the Kd in assay [2] is 12.6 to 126 nM.

`C[C@@H](O)[C@H](NC(=O)[C@@H](NC(=O)[C@@H]1CSSC[C@H](NC(=O)[C@H](Cc2ccc(Cl)cc2)NC(=O)C(C)(C)O)C(=O)N[C@@H](CCCCN)C(=O)N[C@@H](CCCNC(=N)N)C(=O)NC(C)(C)C(=O)N[C@@H](CC(N)=O)C(=O)N1)C(C)(C)C)C(N)=O` [PSM-0461, Hib-Pcf-[Cys-Lys-Arg-Aib-Asn-Cys]-Tle-Thr-NH2] ({Isobutyryl(2-OH)}-[Phe(4-Cl)]CKR[Aib]NC[Tle]T-NH2; disulfide 2-7): the IC50 in assay [1] is less than 200 nM. The Kd in assay [2] is 12.6 to 126 nM.
